According to patent publication US9937183B2, “Antimicrobial compounds and methods of making and using the same” (priority 2013, dated 2018):
Converted amounts (≈) assume the structure as drawn. Where two headings read alike, the source gives them in different places.

Tests used:
Format in all cases: cell-based
E. coli ATCC25922 = assay: MIC, microtiter-based liquid assay (CLSI); details: Escherichia coli
E. coli 1705878 = assay: MIC, microtiter-based liquid assay (CLSI); details: Escherichia coli, MDR strain
E. coli MG1655 parent = assay: MIC, microtiter-based liquid assay (CLSI); details: Escherichia coli
E. coli CAG12184 TolC = assay: MIC, microtiter-based liquid assay (CLSI); details: Escherichia coli, CAG12184TOLC
[1] = tested on: S. pneumoniae 02J1175 Mef(A); assay: MIC, microtiter-based liquid assay (CLSI); details: Streptococcus pneumoniae
S. aureus 11540 MRSA = assay: MIC, microtiter-based liquid assay (CLSI); details: Staphylococcus aureus
K. pneumoniae 1705949 = assay: MIC, microtiter-based liquid assay (CLSI); details: Klebsiella pneumoniae, MDR strain
K. pneumoniae 1705966 = assay: MIC, microtiter-based liquid assay (CLSI); details: Klebsiella pneumoniae
A. baumannii 1705936 = assay: MIC, microtiter-based liquid assay (CLSI); details: Acinetobacter baumannii, MDR strain
A. baumannii 1705943 = assay: MIC, microtiter-based liquid assay (CLSI); details: Acinetobacter baumannii
P. aeruginosa ATCC27853 = assay: MIC, microtiter-based liquid assay (CLSI); details: Pseudomonas aeruginosa
P. aeruginosa 1705886 = assay: MIC, microtiter-based liquid assay (CLSI); details: Pseudomonas aeruginosa
P. aeruginosa 1705904 = assay: MIC, microtiter-based liquid assay (CLSI); details: Pseudomonas aeruginosa, MDR strain
[2] = tested on: E. faecium A6349 VanA + LNZ-R; assay: MIC, microtiter-based liquid assay (CLSI); details: Enterococcus faecium
Y. pestis = assay: microbe, parasite or virus in culture; details: for MIC50 / MIC / MIC90: Yersinia pestis; for MIC50: read-out: Y. pestis MIC50; for MIC: read-out: Y. pestis MIC Range; for MIC90: read-out: Y. pestis MIC90
B. mallei = assay: microbe, parasite or virus in culture; details: Burkholderia mallei; for MIC50: read-out: B. mallei MIC50; for MIC90: read-out: B. mallei MIC90; for MIC: read-out: B. mallei MIC Range
F. tularensis = assay: microbe, parasite or virus in culture; details: Francisella tularensis; for MIC50: read-out: F. tularensis MIC50; for MIC: read-out: F. tularensis MIC Range; for MIC90: read-out: F. tularensis MIC90
B. anthracis = assay: microbe, parasite or virus in culture; details: Bacillus anthracis; for MIC50: read-out: B. anthracis MIC50; for MIC90: read-out: B. anthracis MIC90; for MIC: read-out: B. anthracis MIC Range
B. pseudomallei = assay: microbe, parasite or virus in culture; details: Burkholderia pseudomallei; for MIC50: read-out: B. pseudomallei MIC50; for MIC90: read-out: B. pseudomallei MIC90; for MIC: read-out: B. pseudomallei MIC Range
[3] = ATCC25922, read-out: MIC E. coli ATCC25922 + 50% HS
[4] = ATCC25922, read-out: MIC E. coli ATCC25922

Row | Structure (SMILES) | MIC (E. coli ATCC25922; [3]) | MIC (E. coli ATCC25922; [4]) | MIC (E. coli 1705878) | MIC (E. coli MG1655 parent) | MIC (E. coli CAG12184 TolC) | MIC [1] | MIC (S. aureus 11540 MRSA) | MIC (K. pneumoniae 1705949) | MIC (K. pneumoniae 1705966) | MIC (A. baumannii 1705936) | MIC (A. baumannii 1705943) | MIC (P. aeruginosa ATCC27853) | MIC (P. aeruginosa 1705886) | MIC (P. aeruginosa 1705904) | MIC [2] | MIC50 (Y. pestis) | MIC (Y. pestis) | MIC50 (B. mallei) | MIC90 (B. mallei) | MIC (B. mallei) | other results
1 | C[C@H](NCCCNC(=N)N)c1ccc(-n2cc3cc(-c4cc(C5CCC(CN)CC5)cc(Cl)c4F)[nH]c3nc2=O)cc1 (some centres unmarked) [Compound 8] | 2 µg/mL | 0.5 µg/mL (≈ 0.843 µM) | 1 µg/mL (≈ 1.69 µM) | 0.25 µg/mL (≈ 0.421 µM) | 0.25 µg/mL (≈ 0.421 µM) | 0.5 µg/mL (≈ 0.843 µM) | 0.25 µg/mL (≈ 0.421 µM) | 2 µg/mL (≈ 3.37 µM) | 1 µg/mL (≈ 1.69 µM) | 1 µg/mL (≈ 1.69 µM) | 0.5 µg/mL (≈ 0.843 µM) | 4 µg/mL (≈ 6.74 µM) | 4 µg/mL (≈ 6.74 µM) | 4 µg/mL (≈ 6.74 µM) | 4 µg/mL | 0.12 µg/mL (≈ 0.202 µM) | 0.03 to 0.5 µg/mL (≈ 0.0506 to 0.843 µM) | ≤ 0.03 µg/mL | 0.12 µg/mL (≈ 0.202 µM) | 0.03 to 0.25 µg/mL (≈ 0.0506 to 0.421 µM) | Y. pestis MIC50 (Y. pestis): 0.06 µg/mL; MIC50 (F. tularensis): 0.06 µg/mL (≈ 0.101 µM); MIC (F. tularensis): 0.03 to 2 µg/mL (≈ 0.0506 to 3.37 µM)
2 | C=C[C@@H](NCCCNC(=N)N)c1ccc(-n2cc3cc(-c4cc(CCC[C@H](C)N)cc(Cl)c4F)[nH]c3nc2=O)cc1 [Compound 11] | 0.5 µg/mL | 0.25 µg/mL (≈ 0.432 µM) | 0.5 µg/mL (≈ 0.863 µM) | 0.25 µg/mL (≈ 0.432 µM) | 0.25 µg/mL (≈ 0.432 µM) | 2 µg/mL (≈ 3.45 µM) | 0.5 µg/mL (≈ 0.863 µM) | 8 µg/mL (≈ 13.8 µM) | 1 µg/mL (≈ 1.73 µM) | 1 µg/mL (≈ 1.73 µM) | 0.25 µg/mL (≈ 0.432 µM) | 4 µg/mL (≈ 6.91 µM) | 4 µg/mL (≈ 6.91 µM) | 8 µg/mL (≈ 13.8 µM) | 4 µg/mL | ≤ 0.03 µg/mL | 0.03 to 0.5 µg/mL (≈ 0.0518 to 0.863 µM) | ≤ 0.03 µg/mL | 0.12 µg/mL (≈ 0.207 µM) | 0.03 to 0.25 µg/mL (≈ 0.0518 to 0.432 µM) | MIC50 (B. anthracis): 0.25 µg/mL (≈ 0.432 µM); MIC90 (B. anthracis): 0.5 µg/mL (≈ 0.863 µM); MIC (B. anthracis): 0.12 to 0.5 µg/mL (≈ 0.207 to 0.863 µM); MIC90 (Y. pestis): 0.12 µg/mL (≈ 0.207 µM); MIC50 (F. tularensis): 0.06 µg/mL (≈ 0.104 µM); MIC90 (F. tularensis): 0.25 µg/mL (≈ 0.432 µM); MIC (F. tularensis): 0.03 to 4 µg/mL (≈ 0.0518 to 6.91 µM); MIC50 (B. pseudomallei): 1 µg/mL (≈ 1.73 µM); MIC90 (B. pseudomallei): 4 µg/mL (≈ 6.91 µM); MIC (B. pseudomallei): 0.25 to 8 µg/mL (≈ 0.432 to 13.8 µM)
3 | C[C@H](N)CCCc1cc(-c2cc3cn(-c4ccc([C@H](C)NCCCNC(=N)N)cc4)c(=O)nc3[nH]2)c(F)c(Cl)c1F [Compound 12] | 0.5 µg/mL | 0.125 µg/mL (≈ 0.214 µM) | 0.25 µg/mL (≈ 0.427 µM) | 0.25 µg/mL (≈ 0.427 µM) | 0.125 µg/mL (≈ 0.214 µM) | 0.125 µg/mL (≈ 0.214 µM) | 0.125 µg/mL (≈ 0.214 µM) | 0.25 µg/mL (≈ 0.427 µM) | 0.125 µg/mL (≈ 0.214 µM) | 2 µg/mL (≈ 3.42 µM) | 0.25 µg/mL (≈ 0.427 µM) | 4 µg/mL (≈ 6.84 µM) | 2 µg/mL (≈ 3.42 µM) | 4 µg/mL (≈ 6.84 µM) | 0.5 µg/mL | 0.12 µg/mL (≈ 0.205 µM) | 0.03 to 0.5 µg/mL (≈ 0.0513 to 0.855 µM) | ≤ 0.03 µg/mL | 0.12 µg/mL (≈ 0.205 µM) | 0.03 to 0.25 µg/mL (≈ 0.0513 to 0.427 µM) | MIC50 (B. anthracis): 0.06 µg/mL (≈ 0.103 µM); MIC90 (B. anthracis): 0.12 µg/mL (≈ 0.205 µM); MIC (B. anthracis): 0.03 to 0.25 µg/mL (≈ 0.0513 to 0.427 µM); MIC90 (Y. pestis): 0.25 µg/mL (≈ 0.427 µM); MIC50 (F. tularensis): ≤ 0.03 µg/mL; MIC90 (F. tularensis): ≤ 0.03 µg/mL; MIC (F. tularensis): 0.03 to 1 µg/mL (≈ 0.0513 to 1.71 µM); MIC50 (B. pseudomallei): 4 µg/mL (≈ 6.84 µM); MIC90 (B. pseudomallei): 8 µg/mL (≈ 13.7 µM); MIC (B. pseudomallei): 0.5 to 16 µg/mL (≈ 0.855 to 27.3 µM)
